Activity calls are given as the source filed them. The rule behind the calls is not given here.
Assays:
[1] = molecular target: Myosin light chain kinase, smooth muscle (Homo sapiens) (UniProt Q15746); experiment: Inhibition of human MLCK/MYLK using KKLNRTLSFAEPG as substrate at 1 uM in presence of 32P-ATP by Hotspot assay relative to control; values are per cent of control
[2] = molecular target: T1, G protein-coupled receptor kinase 3 (Homo sapiens) (UniProt P35626); experiment: Inhibition of human GRK3 using casein as substrate at 1 uM in presence of 32P-ATP by Hotspot assay relative to control; values are per cent of control
T1 sequence (whole entry): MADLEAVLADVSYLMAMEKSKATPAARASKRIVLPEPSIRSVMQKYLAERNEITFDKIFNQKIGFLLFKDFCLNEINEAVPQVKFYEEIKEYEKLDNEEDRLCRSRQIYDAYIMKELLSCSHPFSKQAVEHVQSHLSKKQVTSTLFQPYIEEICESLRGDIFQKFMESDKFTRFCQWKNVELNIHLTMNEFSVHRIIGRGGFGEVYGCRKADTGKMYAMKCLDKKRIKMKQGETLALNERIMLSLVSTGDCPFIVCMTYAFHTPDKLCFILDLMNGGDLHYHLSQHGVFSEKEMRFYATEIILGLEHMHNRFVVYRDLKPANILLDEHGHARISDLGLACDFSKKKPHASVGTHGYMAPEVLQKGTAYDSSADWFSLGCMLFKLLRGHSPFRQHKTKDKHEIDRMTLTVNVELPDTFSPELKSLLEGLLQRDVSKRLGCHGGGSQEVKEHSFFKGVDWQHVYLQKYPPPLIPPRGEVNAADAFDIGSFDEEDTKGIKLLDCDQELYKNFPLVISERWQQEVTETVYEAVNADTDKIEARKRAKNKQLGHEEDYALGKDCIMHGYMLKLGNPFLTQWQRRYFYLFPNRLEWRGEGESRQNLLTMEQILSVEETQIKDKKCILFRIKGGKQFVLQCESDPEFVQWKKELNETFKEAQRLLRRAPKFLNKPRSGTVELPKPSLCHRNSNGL

[3] = molecular target: Dual specificity protein kinase CLK2 (Homo sapiens) (UniProt P49760); experiment: Inhibition of human CLK2 using myelin basic protein as substrate at 1 uM in presence of 32P-ATP by Hotspot assay relative to control; values are per cent of control
Dual specificity protein kinase CLK2 (Homo sapiens), sequence (P49760 whole entry, looked up): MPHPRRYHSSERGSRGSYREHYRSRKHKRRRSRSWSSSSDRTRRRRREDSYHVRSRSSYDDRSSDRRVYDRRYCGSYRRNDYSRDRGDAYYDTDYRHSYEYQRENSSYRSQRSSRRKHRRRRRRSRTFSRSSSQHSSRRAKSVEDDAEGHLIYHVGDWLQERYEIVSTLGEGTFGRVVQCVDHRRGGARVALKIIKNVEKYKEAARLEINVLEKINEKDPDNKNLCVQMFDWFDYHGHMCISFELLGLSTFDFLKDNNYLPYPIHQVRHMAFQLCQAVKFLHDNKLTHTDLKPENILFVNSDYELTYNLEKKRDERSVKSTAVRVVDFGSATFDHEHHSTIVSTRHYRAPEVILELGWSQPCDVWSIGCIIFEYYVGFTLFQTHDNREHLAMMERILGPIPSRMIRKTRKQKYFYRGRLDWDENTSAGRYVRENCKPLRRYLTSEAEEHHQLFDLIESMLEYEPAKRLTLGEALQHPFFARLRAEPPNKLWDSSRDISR

[4] = system: Peritoneal macrophage cell; experiment: Inhibition of TNF-alpha induced necroptosis in thioglycolate-elicited mouse peritoneal macrophage assessed as increase in cell viability at 0.04 to 1 uM incubated for 24 hrs in presence of zVAD and SMAC007 by Cell Titer-Glo luminescent cell viability assay; type: functional, cell-based; settings: dose 0.04-1 µM
[5] = molecular target: Mitogen-activated protein kinase 14 (Homo sapiens) (UniProt Q16539); experiment: Inhibition of human P38a/MAPK14 using myelin basic protein as substrate at 1 uM in presence of 32P-ATP by Hotspot assay relative to control; values are per cent of control
Mitogen-activated protein kinase 14 (Homo sapiens), sequence (Q16539 whole entry): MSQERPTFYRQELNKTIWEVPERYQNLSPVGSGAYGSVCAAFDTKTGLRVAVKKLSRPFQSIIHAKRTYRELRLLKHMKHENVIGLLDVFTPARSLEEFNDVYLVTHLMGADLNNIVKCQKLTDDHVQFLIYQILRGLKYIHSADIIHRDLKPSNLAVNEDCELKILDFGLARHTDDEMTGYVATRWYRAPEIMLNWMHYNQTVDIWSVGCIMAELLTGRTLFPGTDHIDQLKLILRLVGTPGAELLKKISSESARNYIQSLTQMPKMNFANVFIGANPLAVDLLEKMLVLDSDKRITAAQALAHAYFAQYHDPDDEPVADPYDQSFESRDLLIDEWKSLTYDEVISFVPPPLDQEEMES

[6] = molecular target: T2, Dual specificity protein kinase TTK (Homo sapiens) (UniProt P33981); experiment: Inhibition of human TTK using at 1 uM in presence of 32P-ATP by Hotspot assay relative to control; values are per cent of control
T2 sequence (whole entry): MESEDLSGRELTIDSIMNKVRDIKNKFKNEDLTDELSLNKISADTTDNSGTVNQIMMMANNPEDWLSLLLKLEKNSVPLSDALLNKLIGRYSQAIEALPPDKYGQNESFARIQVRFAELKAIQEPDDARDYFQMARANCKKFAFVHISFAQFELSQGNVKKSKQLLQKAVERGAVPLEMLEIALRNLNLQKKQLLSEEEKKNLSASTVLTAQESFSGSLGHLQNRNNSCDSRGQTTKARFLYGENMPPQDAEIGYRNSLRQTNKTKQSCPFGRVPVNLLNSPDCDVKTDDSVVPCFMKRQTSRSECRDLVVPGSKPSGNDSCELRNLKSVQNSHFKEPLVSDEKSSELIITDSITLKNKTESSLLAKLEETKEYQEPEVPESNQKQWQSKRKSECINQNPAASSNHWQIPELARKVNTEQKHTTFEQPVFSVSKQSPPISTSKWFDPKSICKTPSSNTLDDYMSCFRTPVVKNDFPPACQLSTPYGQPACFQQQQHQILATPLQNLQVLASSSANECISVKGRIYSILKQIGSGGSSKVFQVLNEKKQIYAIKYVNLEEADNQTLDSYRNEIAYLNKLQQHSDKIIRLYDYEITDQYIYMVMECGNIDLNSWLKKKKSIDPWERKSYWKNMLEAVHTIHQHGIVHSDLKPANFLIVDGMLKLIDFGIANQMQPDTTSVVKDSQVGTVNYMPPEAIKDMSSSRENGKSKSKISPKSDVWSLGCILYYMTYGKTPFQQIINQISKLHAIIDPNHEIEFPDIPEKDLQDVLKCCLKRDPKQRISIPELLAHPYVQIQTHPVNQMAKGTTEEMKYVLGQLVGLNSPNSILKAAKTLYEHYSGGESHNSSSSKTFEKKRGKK

[7] = molecular target: T3, Serine/threonine-protein kinase Sgk1 (Homo sapiens) (UniProt O00141); experiment: Inhibition of human SGK1 using KGSGSGRPRTSSFAEG as substrate at 1 uM in presence of 32P-ATP by Hotspot assay relative to control; values are per cent of control
T3 sequence (whole entry): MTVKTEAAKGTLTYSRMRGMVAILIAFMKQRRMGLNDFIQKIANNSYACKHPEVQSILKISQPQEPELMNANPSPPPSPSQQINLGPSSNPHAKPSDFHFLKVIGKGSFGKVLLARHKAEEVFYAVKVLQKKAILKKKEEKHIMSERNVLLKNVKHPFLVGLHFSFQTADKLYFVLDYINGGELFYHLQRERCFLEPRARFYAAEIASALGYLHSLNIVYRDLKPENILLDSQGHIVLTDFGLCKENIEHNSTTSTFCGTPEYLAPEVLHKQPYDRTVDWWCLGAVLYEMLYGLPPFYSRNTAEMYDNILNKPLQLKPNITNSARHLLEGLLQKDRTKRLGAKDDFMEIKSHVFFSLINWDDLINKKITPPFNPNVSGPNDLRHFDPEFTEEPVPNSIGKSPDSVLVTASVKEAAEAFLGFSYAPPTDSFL

Myosin light chain kinase, smooth muscle (Homo sapiens), sequence (Q15746 whole entry): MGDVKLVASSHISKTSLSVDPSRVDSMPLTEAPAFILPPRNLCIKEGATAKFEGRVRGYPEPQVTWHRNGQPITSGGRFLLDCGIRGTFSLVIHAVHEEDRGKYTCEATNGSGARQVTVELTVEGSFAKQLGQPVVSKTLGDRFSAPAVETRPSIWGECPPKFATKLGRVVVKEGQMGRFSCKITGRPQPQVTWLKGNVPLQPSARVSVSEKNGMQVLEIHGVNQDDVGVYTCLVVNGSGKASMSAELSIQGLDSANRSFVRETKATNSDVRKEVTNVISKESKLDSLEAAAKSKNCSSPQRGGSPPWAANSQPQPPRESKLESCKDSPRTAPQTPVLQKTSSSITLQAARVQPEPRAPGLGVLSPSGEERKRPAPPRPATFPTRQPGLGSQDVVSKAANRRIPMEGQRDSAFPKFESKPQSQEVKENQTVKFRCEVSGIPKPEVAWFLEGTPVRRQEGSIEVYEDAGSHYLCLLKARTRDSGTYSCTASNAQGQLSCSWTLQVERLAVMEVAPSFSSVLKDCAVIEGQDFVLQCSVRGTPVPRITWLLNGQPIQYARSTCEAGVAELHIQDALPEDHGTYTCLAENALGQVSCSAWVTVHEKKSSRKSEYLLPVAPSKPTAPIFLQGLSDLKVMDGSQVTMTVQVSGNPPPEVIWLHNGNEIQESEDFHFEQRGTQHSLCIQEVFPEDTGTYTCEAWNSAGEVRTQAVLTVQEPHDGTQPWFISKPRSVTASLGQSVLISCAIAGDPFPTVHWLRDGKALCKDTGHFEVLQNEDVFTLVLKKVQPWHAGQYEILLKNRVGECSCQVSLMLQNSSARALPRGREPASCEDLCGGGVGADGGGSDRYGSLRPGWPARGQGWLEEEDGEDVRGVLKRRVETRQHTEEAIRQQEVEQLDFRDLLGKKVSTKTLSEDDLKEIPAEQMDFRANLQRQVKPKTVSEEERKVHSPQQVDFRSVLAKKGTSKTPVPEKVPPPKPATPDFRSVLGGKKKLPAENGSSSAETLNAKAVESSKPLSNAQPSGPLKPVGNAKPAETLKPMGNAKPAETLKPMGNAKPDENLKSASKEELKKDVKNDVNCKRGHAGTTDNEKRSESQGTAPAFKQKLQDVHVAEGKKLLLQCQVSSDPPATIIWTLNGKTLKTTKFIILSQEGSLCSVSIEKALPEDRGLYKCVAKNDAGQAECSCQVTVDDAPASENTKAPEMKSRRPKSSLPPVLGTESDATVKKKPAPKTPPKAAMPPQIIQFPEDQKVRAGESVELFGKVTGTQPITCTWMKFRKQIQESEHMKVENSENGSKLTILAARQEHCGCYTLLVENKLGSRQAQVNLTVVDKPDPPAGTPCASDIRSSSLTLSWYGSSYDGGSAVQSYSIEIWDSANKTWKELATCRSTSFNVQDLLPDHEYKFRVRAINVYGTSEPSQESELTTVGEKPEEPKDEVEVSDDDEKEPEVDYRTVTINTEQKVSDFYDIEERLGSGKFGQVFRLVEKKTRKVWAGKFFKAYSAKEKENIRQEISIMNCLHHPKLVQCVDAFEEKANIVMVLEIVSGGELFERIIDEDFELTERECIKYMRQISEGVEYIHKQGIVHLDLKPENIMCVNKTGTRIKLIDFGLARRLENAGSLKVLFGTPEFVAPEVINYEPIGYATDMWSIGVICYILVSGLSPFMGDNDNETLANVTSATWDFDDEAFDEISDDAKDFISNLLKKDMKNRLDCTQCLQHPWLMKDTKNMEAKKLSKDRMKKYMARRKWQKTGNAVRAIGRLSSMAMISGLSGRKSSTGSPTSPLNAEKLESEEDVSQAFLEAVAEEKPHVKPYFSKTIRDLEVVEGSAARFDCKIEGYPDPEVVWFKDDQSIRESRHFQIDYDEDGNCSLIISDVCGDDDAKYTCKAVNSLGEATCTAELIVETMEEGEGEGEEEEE

| SMILES | residual activity [1] | residual activity [2] | residual activity [3] | inhibition [4] | residual activity [5] | residual activity [6] | residual activity [7] |
| --- | --- | --- | --- | --- | --- | --- | --- |
| Cc1cc(-c2cnc(N)c3c(-c4ccc5scnc5c4)csc23)n(C)n1 | 95.3% | 80.9% | 101% | Active | 40.9% | 101% | 94.2% |
| CC(C)S(=O)(=O)c1ccc2nccc(Nc3ccc4scnc4c3)c2c1 | 97.9% | 99.5% | 97.1% | Active | 91.5% | 100% | 95.7% |
| CNC(=O)c1ccc2c(c1)ncn2-c1ccc(CC(=O)OC(C)(C)C)cc1 | 97.7% | 108% | 93.7% | inactive | 95.8% | 91% | 94.2% |

Reference: ChEMBL document CHEMBL5649166, “RIP3 induces apoptosis independent of pronecrotic kinase activity” (Mol Cell, 2014)
